Literature values, collected in paper PMC7832358, “Trending Topics on Coumarin and Its Derivatives in 2020” (Molecules, 2021).

Assays:
Ebolavirus (EBOV) = details: read-out: IC50 against EBOV
Marburg virus (MARV) = details: read-out: IC50 against MARV
xanthine oxidase = target: xanthine oxidase; set-up: method as in PMID 32574739; details: read-out: xanthine oxidase inhibition IC50
B16F10 cells = system: B16F10 cells; set-up: method as in PMID 32574739
[1] = system: streptozotocin (STZ)-induced cognitive dysfunction in rats
[2] = system: streptozotocin (STZ)-induced cognitive dysfunction in rats; remark: listed apart in the source
hMAO-B = details: read-out: hMAO-B inhibition IC50
reserpinized mice = reserpinized mice pre-treated with levodopa and benserazide
[3] = set-up: method as in PMID 31887477; details: inhibitor of thioredoxin reductases (TrxRs); read-out: antitumor activity IC50
hA3 receptors = system: hA3 receptors; set-up: method as in PMID 31738058; details: antagonists
tyrosinase = system: tyrosinase; set-up: method as in PMID 32652434

Cc1c(Cc2ccc(OC(F)(F)F)cc2)c(=O)oc2cc(OCC(O)CN3CCC(C(N)=O)CC3)ccc12 (stereo not shown) [compound XVI]
IC50 (Ebolavirus (EBOV)): 0.5 µM
IC50 (Marburg virus (MARV)): 1.2 µM

COc1ccc(-c2cc3cc([N+](=O)[O-])ccc3oc2=O)cc1 [3-(4-methoxyphenyl)-6-nitrocoumarin]
IC50 (xanthine oxidase): 8.4 µM
cytotoxicity in B16F10 cells (B16F10 cells): non-cytotoxic

O=c1ccc2ccc(O)cc2o1 [umbelliferone]
cognitive deficits in the Morris water maze and object recognition tests [1]: prevent cognitive deficits
activity of hippocampal AChE [2]: reduced
expression of NF-κB inhibitor (IκB-α) [2]: upregulating
glutathione content [2]: increasing
level of malondialdehyde [2]: reduced
level of proinflammatory cytokines [2]: reducing
overexpression of inflammatory markers (nuclear factor κB and cyclooxygenase II) [2]: inhibiting

O=c1oc2cc(O)ccc2cc1-c1cc(Br)cs1 [3-(4′-bromothiophen-2′-yl)-7-hydroxycoumarin]
IC50 (hMAO-B): 0.14 µM
in vivo profile on locomotor activity (OFT) versus selegiline (reserpinized mice): slightly better in vivo profile than selegiline

COc1c2occc2cc2ccc(=O)oc12 [xanthotoxin]
cognitive deficits in the Morris water maze and object recognition tests [1]: prevent cognitive deficits
activity of hippocampal AChE [2]: reduced
expression of NF-κB inhibitor (IκB-α) [2]: upregulating
glutathione content [2]: increasing
level of malondialdehyde [2]: reduced
level of proinflammatory cytokines [2]: reducing

CCN(CC)c1ccc2cc(/C=C/C(=O)c3ccc(OC)c(O)c3)c(=O)oc2c1 [compound V]
IC50 [3]: 3.6 µM

O=c1oc2c(O)cccc2cc1-c1ccc(Br)cc1 [compound XX]
hA3 receptor affinity (hA3 receptors): low nanomolar range

O=c1cc(OCc2cn(Cc3cocc(O)c3=O)nn2)c2ccccc2o1 [compound XXVI]
tyrosinase inhibitory activity (tyrosinase): sub-micromolar range
